From a melting point compilation (Tetko et al.) come the findings set out here.

In general, melting point refers to the temperature of the solid-liquid transition.

For the compound `NC(=O)C(O)C1CC1` (configuration not stated), the melting point lay within 115 to 117 °C.

`Cc1ccccc1Cc1nn[nH]n1`: the melting point was in the range of 156 to 158 °C. The same measure for `CCC1(C)NC(=O)NC1=O` (configuration not stated): 144 to 150 °C; for `CC(C)n1ncc2cc(S(N)(=O)=O)ccc21`: 168 to 170 °C.

In the case of `O=Cc1cn2cc(Cl)ccc2n1`, the melting point fell in the range of 183 to 185 °C. The same measure for `O=S(=O)(Cl)c1c[nH]c2nccc(Br)c12`: 177 to 179 °C.

Consider `Cc1nc2c(C#N)cnn2c(O)c1CC(=O)O`, for which the melting point is 275 to 277 °C.

`N#Cc1cccc(CCl)c1` showed a melting point of 67 to 70 °C. The same measure for `Cn1c2ccccc2n2c(S)nnc12`: 270 to 272 °C.

In turn, `CC(=O)Nc1ccc(OC2CCCCC2O)cc1` (configuration not stated) came in with a melting point of 139 to 141 °C. The same measure for `NS(=O)(=O)CC(F)(F)F`: 97 to 99 °C; for `O=C(O)C1(C(=O)Nc2ccc(F)cc2)CC1`: 179 to 181 °C; for `Nc1ccc2[nH]c(-c3ccc(F)cc3)nc2c1`: 118 to 120 °C. Compound `NC(=O)Cc1nc2ccccc2[nH]1` displayed a melting point of 229 to 231 °C.

Compound `N#CCS(N)(=O)=O` had a melting point of 100 to 102 °C. With `O=C(O)CNS(=O)(=O)c1cccc2c1N=S=N2` the figure was 270 to 272 °C.

`Nc1nc2c(F)c(F)c(F)cc2s1` displayed a melting point of 160 to 164 °C. With `NNc1ccc(S(=O)(=O)N2CCCCC2)cn1`, the melting point is 186 to 188 °C.

Compound `Cc1csc(NC(C)C(=O)O)n1` (configuration not stated) came in with a melting point of 189 to 191 °C.

Turning to `COC(=O)Cn1cnc2cc(F)ccc2c1=O`, the melting point fell in the range of 144 to 146 °C.

`CCOc1cc(CC#N)ccc1OCC(F)(F)F` displayed a melting point of 40 to 42 °C.

On to `CN(CC(=O)Nc1ccc(F)cc1)C(=O)CCl`, for which the melting point fell in the range of 159 to 161 °C. Take `N#Cc1ccc2cc(C(=O)O)ccc2c1`: the melting point lay in the range of 279 to 281 °C. In turn, `CC(=O)c1ccc(CNC(=O)OC(C)(C)C)nc1C` yielded a melting point of 72 to 74 °C.

With `Nc1nc(-c2cc(F)ccc2F)cs1`, the melting point is 145 to 147 °C. With `O=C(O)CNC(=O)c1cc2ccccc2[nH]1`, the melting point lay within 231 to 233 °C. The same measure for `O=C(O)c1ccc(Br)cc1OC(F)F`: 133 to 135 °C; for `O=[N+]([O-])c1cc(Cl)c(S(=O)(=O)Cl)c(Cl)c1`: 92 to 94 °C. With `NC(=NO)c1cccnc1N1CCCCC1` the figure was 149 to 151 °C; with `NNC(=O)C1Cc2ccccc2O1` (configuration not stated), 150 to 152 °C; with `COc1cc(C(=O)O)cc(N)c1OC`, 135 to 137 °C. `CCn1c(SCC(=O)N2c3ccccc3Sc3ccccc32)nnc1-c1ccco1` registered a melting point of 152 to 154 °C. With `OC1CN(c2ccc(C(F)(F)F)cn2)C1` the figure was 136 to 138 °C; with `CS(=O)(=O)c1cc(C(=O)O)ccc1Cl`, 216 to 218 °C. `Cc1cccc(C(C)C)c1NC(=O)C(C)Cl` (configuration not stated) gave a melting point of 126 to 128 °C. With `O=C1Cc2ccccc2C(=O)N1` the figure was 190 to 192 °C; with `CC(C)(C)OC(=O)NC(C#N)c1ccc(F)cc1` (configuration not stated), 85 to 87 °C. With `CC(=O)c1ccc(N(C)C)cc1` the figure was 105 to 107 °C; with `Cc1cccc(NC(=O)Nc2cccc(CN)c2)c1`, 163 to 165 °C. The same measure for `O=C(O)c1csc(-c2ccc([N+](=O)[O-])cc2)n1`: 198 to 200 °C. Take `O=C(CCCl)Nc1ccc2[nH]c(=O)[nH]c2c1`: the melting point is 299 to 301 °C. The same measure for `COc1ccc(-c2ccc(C(=O)O)c(F)c2)c(F)c1`: 212 to 214 °C; for `COC(=O)Cn1cc(C(C)=O)nn1`: 79 to 81 °C. With `CCc1cc(O)nc(CCl)n1` the figure was 125 to 127 °C; with `CC(C)(C)NS(=O)(=O)c1cc(C(=O)O)ccc1F`, 182 to 184 °C; with `Cc1c(C=O)c(=O)n(-c2ccccc2)n1C`, 162 to 165 °C.

Take `O=C(O)c1csc(-c2cccc(C(F)(F)F)c2)n1`: the melting point was in the range of 200 to 202 °C.

The compound `CN(C)C(=O)c1ccccc1C(=O)O` showed a melting point of 124 to 126 °C. The same measure for `CCOC(=O)c1cc(C)nc2cc(C)nn12`: 81 to 83 °C; for `CC(C)(C)n1ncc2c(=O)[nH]cnc21`: 226 to 228 °C; for `O=C(O)CCc1ccc(S(=O)(=O)NC2CC2)cc1`: 173 to 175 °C. The same measure for `Cc1nn(-c2cccc(Cl)c2)nc1C(=O)O`: 202 to 204 °C; for `O=C(O)C1=C(Nc2ccccc2)OCC1=O`: 140 to 150 °C. The same measure for `CCOc1cc(C=CC(=O)O)ccc1OCCOc1ccccc1`: 187 to 189 °C; for `O=C1NCC2(CCCCC2)O1`: 96 to 98 °C; for `Nc1ccccc1-n1cnnn1`: 84 to 86 °C.

As for `COC(=O)c1ccc(C)c(O)c1`, the melting point lay within 119 to 121 °C.

For `Cn1c(S)nnc1Cc1cccs1`, the melting point lay in the range of 157 to 161 °C.

As for `Cc1ccc([N+](=O)[O-])cc1S(=O)(=O)N1CCC(C(=O)O)CC1`, the melting point was in the range of 107 to 109 °C.

`CS(=O)(=O)N1CCC(CN)CC1` returned a melting point of 63 to 65 °C. For the compound `CN1CCc2ccc(S(=O)(=O)Cl)cc21`, the melting point was 62 to 64 °C. With `O=C(O)C1CC(=O)N(c2cccc3ccccc23)C1` (configuration not stated) the figure was 207 to 209 °C. The same measure for `COc1cc(C=C2CCCc3c2nc2ccccc2c3C(=O)O)cc(OC)c1OC`: 249 to 251 °C; for `Clc1ccc(-c2ccccc2)nn1`: 157 to 159 °C; for `O=C(NC1CCCCC1)c1cccnc1Cl`: 132 to 134 °C.

`COC(=O)CC1CCCCC1=NO` (configuration not stated) showed a melting point of 74 to 76 °C. `CC(O)Cc1nc2ccccc2s1` (configuration not stated): the melting point lay within 84 to 86 °C. `NCC(O)CN1CCOCC1` (configuration not stated) displayed a melting point of 36 to 40 °C. Take `Cc1noc2ncnc(N)c12`: the melting point was 269 to 271 °C. With `Cc1nn(C)c2ncc(CCl)cc12` the figure was 171 to 173 °C; with `CC(C)(C)c1nnn[nH]1`, 203 to 205 °C. The same measure for `Clc1ncc(-c2ccccc2)s1`: 40 to 42 °C; for `Cc1cc(C(=O)O)ccc1NC(=O)OC(C)(C)C`: 178 to 180 °C. With `CC(O)c1c(Cl)nc2sccn12` (configuration not stated) the figure was 107 to 109 °C. Regarding `CN1C(=O)c2ccc(C(=O)O)cc2C1=O`, the melting point is 173 to 175 °C. The same measure for `CCc1nn2c(=O)cc(CCl)nc2s1`: 97 to 99 °C; for `O=C(O)C(=Cc1cccs1)n1nnnc1-c1ccccc1`: 204 to 206 °C; for `COc1ccc(O)c(N)c1`: 135 to 140 °C. The same measure for `Cc1cc(Br)cn2c3c(nc12)CCNC3`: 165 to 167 °C; for `N#Cc1cccc(C(=O)NN)c1`: 166 to 168 °C; for `CNC(C)c1ccc(-n2cncn2)cc1` (configuration not stated): 44 to 48 °C. `COc1ccc(S)c2ccccc12` returned a melting point of 142 to 144 °C.

For `O=S(=O)(Cl)c1ccc2c(c1)Cc1ccccc1-2`, the melting point is 157 to 159 °C. With `O=C(CCl)N1CCN(S(=O)(=O)c2ccc(F)c(Cl)c2)CC1` the figure was 121 to 123 °C; with `NC(=NO)C1CCCCCC1`, 87 to 89 °C; with `CN(C)c1ccc(C2=CCNC2)cc1`, 99 to 101 °C. Consider `O=C1CC2(Cc3ccccc3C2)C(=O)N1`, for which the melting point was 173 to 175 °C. As to `COc1ccc(-c2ccc(C#N)c(=O)[nH]2)cc1OC`, the melting point lay in the range of 272 to 274 °C. In the case of `N#Cc1ccc(Br)cc1C(F)(F)F`, the melting point is 35 to 37 °C. With `CN(C)c1nc(C=O)c(Cl)n1-c1ccc(Br)cc1` the figure was 115 to 117 °C. With `NC(=O)NCc1ccncc1` the figure was 198 to 200 °C.

`Cc1ccc(CC(=O)O)cc1C`: the melting point is 96 to 98 °C. With `CCc1ccc(C(=O)O)cc1S(C)(=O)=O` the figure was 174 to 176 °C; with `COC1CCN(C(=O)Nc2cccc(C(=O)O)c2)CC1`, 196 to 198 °C. `Brc1cnn(-c2nccs2)c1` registered a melting point of 78 to 80 °C. As for `CNC(=O)NCCC(=O)O`, the melting point fell in the range of 129 to 131 °C. The same measure for `CCOC(=O)Cn1ncc2ccccc21`: 34 to 36 °C; for `Cc1cc(C(=O)O)c2cnn(C(C)C)c2n1`: 172 to 174 °C. The same measure for `COc1cc(C=O)ccc1OCCC(=O)O`: 130 to 132 °C. In the case of `Cc1cccc(-c2cc(N)n(Cc3ccccc3)n2)c1`, the melting point fell in the range of 79 to 81 °C. As for `Cc1ccc(S(=O)(=O)C2CCCCC2=O)cc1` (configuration not stated), the melting point is 77 to 79 °C.

For the compound `COc1cc(N)cc(OC)c1Br`, the melting point fell in the range of 149 to 151 °C.

Consider `Fc1cccc2ncnc(Cl)c12`, for which the melting point fell in the range of 139 to 141 °C. The same measure for `CC(=O)NC(C)(C)C(=O)O`: 190 to 192 °C.

Consider `N#CCc1cccc(C#N)c1`, for which the melting point lay in the range of 78 to 80 °C. With `CS(=O)(=O)CCCC(=O)O` the figure was 78 to 80 °C; with `CCc1cc(N)nc(C)n1`, 149 to 151 °C. `CS(=O)(=O)c1cccc(C(=O)c2ccc(F)cc2F)c1` returned a melting point of 129 to 131 °C.

`COC(=O)c1c(O)cc(=O)n2c1CCC2` yielded a melting point of 167 to 169 °C. With `O=C(O)CCc1nc(-c2cc(Br)cs2)no1` the figure was 129 to 131 °C.

In the case of `Nc1ccnn1-c1ccc(C(F)(F)F)cn1`, the melting point lay in the range of 89 to 91 °C.

As to `O=C1Nc2cccc(I)c2C1=O`, the melting point was in the range of 199 to 201 °C.

In turn, `Cc1cc([N+](=O)[O-])c(S(=O)(=O)Cl)cc1C` gave a melting point of 79 to 81 °C. With `OC1(Cc2ccc(F)cc2)CCNC1` (configuration not stated) the figure was 73 to 75 °C; with `O=C(Nc1cocn1)OCC(F)(F)F`, 131 to 133 °C; with `COC(=O)c1ccc(S(N)(=O)=O)c([N+](=O)[O-])c1`, 139 to 141 °C. With `CCN(CC)C(=O)c1ccc(NC(=O)CCl)cc1` the figure was 115 to 117 °C; with `CNC(=O)c1cc([N+](=O)[O-])ccc1F`, 142 to 144 °C; with `O=C(O)CCc1ccsc1`, 54 to 58 °C. The same measure for `O=C(CCl)N1CCCC1c1ccc2c(c1)OCCO2` (configuration not stated): 168 to 169 °C; for `NC(=O)c1ccsc1NC(=O)CCC(=O)O`: 243 to 245 °C. `O=[N+]([O-])c1ccc2nc(Br)sc2c1` gave a melting point of 201 to 203 °C.
